In US20220233594A1, “TARGETING OTUB1 IN IMMUNOTHERAPY” (Board of Regents, The University ofTexas System, priority 2019, published 2022):

Key:
Assay type in all cases: cell-based, mouse
[1] = system: WT or Otub1-TKO naive OT-I CD8 T cells; assay: ELISA of cytokines in culture supernatant with AKT inhibitor; settings: stimulated with anti-CD3 plus anti-CD28 for 66 h; AKTi vs DMSO
Experimental: T-cell and NK cell purification and in vitro treatments. CD8 and CD4 T cells were isolated from splenocytes with anti-CD8- or anti-CD4-conjugated magnetic beads (Miltenyi), and naive CD8 or CD4 T cells were further purified by FACS sorting to get CD44^loCD62L^hi population. The naive T cells were stimulated in replicate wells of 96-well plates (1×10^5 cells per well) for 66 h, and the culture supernatants were analyzed by ELISA (eBioScience).

[2] = system: WT or Otub1-TKO naive OT-I CD8 T cells; assay: Seahorse analysis of extracellular acidification rate (ECAR) with AKT inhibitor; settings: activated with anti-CD3 plus anti-CD28 for 24 h; AKTi 3 μM vs DMSO
Experimental: Metabolic assays. OCR and ECAR were measured with an XF96 extracellular flux analyzer (Seahorse Bioscience) following the manufacturer's instruction. Briefly, WT or Otub1-TKO CD8 naive T cells, either freshly isolated or in vitro activated with anti-CD3 plus anti-CD28 (for 24 h), were seeded in XF96 microplates (150,000 cells/well). The plates were quickly centrifuged to immobilize the cells. After incubation in a non-buffered assay medium (Seahorse Biosciences) in a non-CO2 incubator for 30 min, the cells were subjected to glycolysis assays with a XF glycolysis stress test kit (Seahorse Biosciences). Initial measurement of ECAR was done when cells were incubated in a glycolysis stress test medium without glucose to record the baseline. Glucose (10 mM) was then injected to induce ECAR, reflecting glycolysis rate under basal conditions. Subsequently, oligomycin (1 μM) was injected to inhibit mitochondrial ATP production and shift the energy production to glycolysis, thereby measuring the maximum glycolytic capacity (also called stressed ECAR). Finally, a glucose analog, 2-deoxy-glucose (2-DG, 100 mM) was injected to inhibit glycolysis through targeting glucose hexokinase, resulting in decreased ECAR that served as a measure to confirm the glycolysis-dependence of the detected ECAR. […]

[3] = system: WT or Otub1-TKO naive OT-I CD8 T cells; assay: qRT-PCR analysis of Glut1 and Hk2 expression with AKT inhibitor; settings: stimulated with anti-CD3 plus anti-CD28; AKTi vs DMSO
Experimental: Real-time quantitative PCR. RNA was extracted with TRIzol reagent from isolated WT OT-I or Otub1-TKO OT-I CD8 T cells. The RNA samples were subjected to quantitative PCR analyses using the SYBR regent (Bio-Rad). The expression of individual genes was calculated by a standard curve method and was normalized to the expression of Actb.

O=c1[nH]c2ccccc2n1C1CCN(Cc2ccc(-c3nc4cc5[nH]cnc5cc4nc3-c3ccccc3)cc2)CC1 [AKTi]
cytokine production (ELISA, culture supernatant) [1]: blocked | extracellular acidification rate (ECAR) [2]: erased the ECAR differences between WT and Otub1-TKO CD8 T cells | Glut1 and Hk2 expression (qRT-PCR) [3]: blocked TCR-CD28-stimulated hyper-expression of the glycolysis-regulatory genes, Glut1 and Hk2
